Measurements from US12005044B1, “Treatment of autism spectrum disorders with ergothioneine, selenoneine, or combinations thereof” (Autism Therapeutics Inc., priority 2022, dated 2024).

Experiments:
[1] = EFSA Panel; cited from earlier work
[2] = tested on: ASD individuals; assay: CARS-2 scoring of ASD individuals before and after three months of ET dietary supplement; format: in vivo, human; design: key to CARS-2 Total scores, After treatment / average of total CARS-2 score after treatment: sum of 15 items, 15 (normal) to 60; ≥30 = ASD
Excerpt: Examples are described below for using ET to treat ASD-affected individuals. Each of the four individuals identified in the examples has various severity of ASD. The examples set forth herein are directed to the use of ET dietary supplement for a period of three months.
The examples below therefore adopted the CARS-2 system to evaluate ET treatment effects in four ASD individuals.
To obtain a CARS-2 score, each individual is rated on a scale of 1 (normal) to 4 (severely abnormal) with respect to each of the 15 criteria (“relationship to others”, “imitation”, “emotional response”, “body use”, “object use”, “adaptation to change”, “visual response”, “listening response”, “taste-smell-touch responses”, “fear and nervousness”, “verbal communication”, “non-verbal communication”, “activity level”, “level and reliability of intellectual responses”, and “general impressions”). A total score is obtained by combining all of 15 separate scores, ranging from 15 to 60. A score of 15 is normal. Scores below 30 are considered very mild or non-autistic; 30-36.5 are considered mild to moderate ASD and scores greater than 36.5 are considered severe ASD. The scoring can be provided by either primary care giver or the parents.
Method of treatment: ET (2 mg/kg bw per day, 54 mg daily) powder is dissolved in drinking water (200 mL). The individual is treated by ET for three months. ET has no color, no taste when dissolved in water.
Method of treatment: ET (2 mg/kg bw per day, 42 mg daily) powder is dissolved in drinking water (200 mL). The individual is treated by ET for three months.
Method of treatment: ET (1 mg/kg bw per day, 74 mg daily) powder is dissolved in drinking water (200 mL). The individual is treated by ET for three months.

[3] = Example 1, child, ET 2 mg/kg bw per day, three months, before treatment 1.5
[4] = Example 1, child, ET 2 mg/kg bw per day, three months, before treatment 2
[5] = Example 1, child, ET 2 mg/kg bw per day, three months, before treatment 2.5
[6] = Example 1, child, ET 2 mg/kg bw per day, three months, before treatment 3
[7] = Example 2, child, ET 2 mg/kg bw per day, three months, before treatment 1
[8] = Example 2, child, ET 2 mg/kg bw per day, three months, before treatment 2
[9] = Example 2, child, ET 2 mg/kg bw per day, three months, before treatment 3
[10] = Example 3, child (ASD, Asperger's Syndrome), ET 2 mg/kg bw per day, three months, before treatment 1
[11] = Example 3, child (ASD, Asperger's Syndrome), ET 2 mg/kg bw per day, three months, before treatment 1.5
[12] = Example 3, child (ASD, Asperger's Syndrome), ET 2 mg/kg bw per day, three months, before treatment 2.5
[13] = Example 4, person, ET 1 mg/kg bw per day, three months, before treatment 1
[14] = Example 4, person, ET 1 mg/kg bw per day, three months, before treatment 2
[15] = Example 4, person, ET 1 mg/kg bw per day, three months, before treatment 3
[16] = Example 4, person, ET 1 mg/kg bw per day, three months, before treatment 4

## C[N+](C)(C)[C@@H](Cc1c[nH]c(=S)[nH]1)C(=O)O [ET, ergothioneine]
[1]
  maximum allowed ET dosage based on the no-observed-adverse-effect level (NOAEL): 800 mg/kg bw per day
[2]; [3]
  CARS-2 Activity level, After treatment: 1.5
  CARS-2 Adaptation to change, After treatment: 1.5
  CARS-2 Body use, After treatment: 1.5
[2]; [4]
  CARS-2 Fear and nervousness, After treatment: 1
  CARS-2 Imitation, After treatment: 2
  CARS-2 Listening response, After treatment: 2
  CARS-2 Non-verbal communication, After treatment: 2
  CARS-2 Object use, After treatment: 2
  CARS-2 Taste-smell-touch responses, After treatment: 2
[2]; [5]
  CARS-2 Emotional response, After treatment: 2
  CARS-2 Relationship to others, After treatment: 2
  CARS-2 Visual response, After treatment: 2.5
[2]; [6]
  CARS-2 General impressions, After treatment: 2.5
  CARS-2 Level and consistency of intellectual response, After treatment: 2
  CARS-2 Verbal communication, After treatment: 2
[2]; Example 1, child, ET 2 mg/kg bw per day, three months, before treatment 33
  CARS-2 Total scores, After treatment: 28.5
[2]; [7]
  CARS-2 Fear and nervousness, After treatment: 1
  CARS-2 Taste-smell-touch responses, After treatment: 1
[2]; [8]
  CARS-2 Adaptation to change, After treatment: 2
  CARS-2 Body use, After treatment: 2
  CARS-2 Emotional response, After treatment: 2
  CARS-2 General impressions, After treatment: 1.5
  CARS-2 Imitation, After treatment: 2
  CARS-2 Level and consistency of intellectual response, After treatment: 2
  CARS-2 Listening response, After treatment: 1
  CARS-2 Object use, After treatment: 2
  CARS-2 Visual response, After treatment: 2
[2]; [9]
  CARS-2 Activity level, After treatment: 3
  CARS-2 Non-verbal communication, After treatment: 2
  CARS-2 Relationship to others, After treatment: 2
  CARS-2 Verbal communication, After treatment: 2
[2]; Example 2, child, ET 2 mg/kg bw per day, three months, before treatment 32
  CARS-2 Total scores, After treatment: 27.5
[2]; [10]
  CARS-2 Adaptation to change, After treatment: 1
  CARS-2 Body use, After treatment: 1
  CARS-2 Emotional response, After treatment: 1
  CARS-2 Level and consistency of intellectual response, After treatment: 1
  CARS-2 Listening response, After treatment: 1
  CARS-2 Non-verbal communication, After treatment: 1
  CARS-2 Object use, After treatment: 1
  CARS-2 Taste-smell-touch responses, After treatment: 1
  CARS-2 Verbal communication, After treatment: 1
[2]; [11]
  CARS-2 Fear and nervousness, After treatment: 1
  CARS-2 General impressions, After treatment: 1.5
  CARS-2 Visual response, After treatment: 1
[2]; Example 3, child (ASD, Asperger's Syndrome), ET 2 mg/kg bw per day, three months, before treatment 2
  CARS-2 Relationship to others, After treatment: 1
[2]; [12]
  CARS-2 Activity level, After treatment: 3
  CARS-2 Imitation, After treatment: 2.5
[2]; Example 3, child (ASD, Asperger's Syndrome), ET 2 mg/kg bw per day, three months, before treatment 20.5
  CARS-2 Total scores, After treatment: 19
[2]; Example 3, child, ET 2 mg/kg bw per day, three months
  diagnosis after ET treatment: no longer ASD
[2]; [13]
  CARS-2 Adaptation to change, After treatment: 1
  CARS-2 Body use, After treatment: 1
  CARS-2 Emotional response, After treatment: 1
[2]; [14]
  CARS-2 Fear and nervousness, After treatment: 1
  CARS-2 Non-verbal communication, After treatment: 2
  CARS-2 Relationship to others, After treatment: 2
  CARS-2 Visual response, After treatment: 2
[2]; [15]
  CARS-2 General impressions, After treatment: 2
  CARS-2 Imitation, After treatment: 3
  CARS-2 Object use, After treatment: 3
  CARS-2 Taste-smell-touch responses, After treatment: 2.5
  CARS-2 Verbal communication, After treatment: 2
[2]; Example 4, person, ET 1 mg/kg bw per day, three months, before treatment 3.5
  CARS-2 Listening response, After treatment: 3
[2]; [16]
  CARS-2 Activity level, After treatment: 4
  CARS-2 Level and consistency of intellectual response, After treatment: 3
[2]; Example 4, person, ET 1 mg/kg bw per day, three months, before treatment 37.5
  CARS-2 Total scores, After treatment: 31.5
[2]; examples 1-4, four individuals, decreased from 30.75, T=4.37, P=0.022 by paired student t-test
  average of total CARS-2 score after treatment: 26.62
